Test results taken from patent publication US20170022201A1, “MACROCYLIC PYRIDINE DERIVATIVES” (Janssen Pharmaceutica NV, priority 2014, published 2017).

Legend:
eEF2K = target: T1, eEF2K (Homo sapiens, UniProt O00418); assay: EF2K cell-based assay (P-EF2 AlphaLISA, 2-deoxyglucose stimulated MCF10A cells); settings: 2.5 mM 2-deoxyglucose 4 h, phosphorylation of EF2 at Thr 56, pIC50 = -log IC50 (M); for IC50: read-out: eEF2K_C_PThr56 pIC50 (converted)
T1 construct: in the immortalized epithelial breast cell lines, MCF10A; host or cells: MCF10A immortalized breast epithelial cells
T1 sequence (O00418 1-725): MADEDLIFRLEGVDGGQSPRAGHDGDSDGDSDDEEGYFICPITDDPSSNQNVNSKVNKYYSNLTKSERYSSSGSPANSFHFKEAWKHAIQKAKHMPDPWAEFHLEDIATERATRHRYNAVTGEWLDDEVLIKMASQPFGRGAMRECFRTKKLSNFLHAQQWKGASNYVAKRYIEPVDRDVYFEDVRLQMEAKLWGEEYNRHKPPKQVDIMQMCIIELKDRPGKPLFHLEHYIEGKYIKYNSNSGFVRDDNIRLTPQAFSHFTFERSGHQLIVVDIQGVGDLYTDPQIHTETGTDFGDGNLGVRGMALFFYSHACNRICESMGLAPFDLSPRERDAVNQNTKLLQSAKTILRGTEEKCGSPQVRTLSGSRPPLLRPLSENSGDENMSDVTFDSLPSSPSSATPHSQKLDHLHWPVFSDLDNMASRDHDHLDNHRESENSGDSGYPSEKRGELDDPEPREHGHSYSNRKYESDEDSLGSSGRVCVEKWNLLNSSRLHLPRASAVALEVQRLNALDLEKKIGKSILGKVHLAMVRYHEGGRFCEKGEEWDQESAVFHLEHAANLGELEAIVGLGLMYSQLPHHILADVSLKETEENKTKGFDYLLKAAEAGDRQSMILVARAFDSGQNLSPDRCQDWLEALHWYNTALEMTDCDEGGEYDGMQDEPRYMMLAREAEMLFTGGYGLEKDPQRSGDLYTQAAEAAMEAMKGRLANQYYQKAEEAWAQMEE
Summary of the method: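 MCF10A cells pretreated with compound for 1 h, then stimulated with 2.5 mM 2-deoxyglucose for 4 h to deplete ATP and activate AMPK. Phospho-EF2 in lysates measured by AlphaLISA.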

PIK3C3 lipid kinase = PIK3C3 lipid kinase (Homo sapiens, UniProt Q8NEB9); assay: Biochemical Vps34 lipid kinase assay (ADP-Glo); settings: 20 μM ATP; for remaining activity at 1 µM: 1 h, read-out: VPS34_1microM_%ofcntrl; for remaining activity at 1 µM / VPS34_1microM_%ofcntrl: single dose 1 μM, residual activity compared to control (DMSO); for IC50: serial dilution 10 μM to 0.3 nM, pIC50 = -log IC50 (M)
PIK3C3 lipid kinase, sequence (Q8NEB9 whole entry): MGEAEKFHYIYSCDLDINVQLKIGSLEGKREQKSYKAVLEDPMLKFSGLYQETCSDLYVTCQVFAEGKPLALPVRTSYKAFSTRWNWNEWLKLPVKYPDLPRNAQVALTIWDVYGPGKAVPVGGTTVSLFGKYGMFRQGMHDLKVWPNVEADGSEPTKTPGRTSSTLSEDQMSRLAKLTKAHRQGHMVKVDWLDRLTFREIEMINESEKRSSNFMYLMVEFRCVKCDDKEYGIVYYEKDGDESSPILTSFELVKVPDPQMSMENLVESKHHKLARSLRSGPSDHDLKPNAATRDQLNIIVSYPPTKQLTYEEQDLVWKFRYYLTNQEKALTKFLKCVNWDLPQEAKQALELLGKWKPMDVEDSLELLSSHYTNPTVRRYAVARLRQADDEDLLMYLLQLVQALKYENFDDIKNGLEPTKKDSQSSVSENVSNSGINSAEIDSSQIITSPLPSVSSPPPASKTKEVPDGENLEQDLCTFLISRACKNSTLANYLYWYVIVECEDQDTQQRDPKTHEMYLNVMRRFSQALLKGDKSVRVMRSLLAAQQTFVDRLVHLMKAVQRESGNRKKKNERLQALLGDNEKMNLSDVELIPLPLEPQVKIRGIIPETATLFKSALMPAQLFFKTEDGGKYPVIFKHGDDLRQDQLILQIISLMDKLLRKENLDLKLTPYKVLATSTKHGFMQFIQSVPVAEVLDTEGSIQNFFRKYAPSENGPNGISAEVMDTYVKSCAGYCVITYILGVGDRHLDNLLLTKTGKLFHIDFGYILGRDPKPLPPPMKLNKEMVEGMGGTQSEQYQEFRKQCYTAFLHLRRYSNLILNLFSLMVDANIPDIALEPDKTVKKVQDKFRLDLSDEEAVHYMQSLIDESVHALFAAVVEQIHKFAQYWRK
Method: A non-radiometric kinase assay (ADP-Glo™ Assay, Promega, Madison, Wi, USA) was used for measuring the kinase activity of the PIK3C3 lipid kinase. All kinase assays were performed in 96-well half-area microtiter plates in a 25 μl reaction volume. The reaction cocktail was pipetted in 3 steps in the following order: • 10 μl of ATP solution (in assay buffer, see below) • 5 μl of test sample in 5% DMSO 10 μl of enzyme/substrate mixture
All lipid kinase assays contained 50 mM HEPES (4-(2-hydroxyethyl)-1-piperazineethanesulfonic acid)—NaOH, pH 7.5, 1 mM EGTA ((ethylene glycol tetraacetic acid), 100 mM NaCl, 0.03% CHAPS (3-[(3-Cholamidopropyl) dimethylammonio]-1-propanesulfonate), 2 mM DTT (Dithiothreitol), 20 μM ATP (corresponding to the apparent ATP-Km), kinase (7.6 nM) and substrate (50 μM). The assay for PIK3C3 additionally contained 3 mM MnCl2.
The reaction cocktails were incubated at 30° C. for 60 minutes. The reaction was stopped with 25 μl ADP-Glo™ reagent per well. Plates were incubated for 40 minutes at room temperature, followed by addition of 50 μl kinase detection reagent per well and incubation for 60 minutes at room temperature. Signal was determined with a microplate luminescence reader (Victor, Perkin Elmer). The assay was either performed using a single dose of compound (1 μM final concentration in the assay reaction) with resulting data expressed as residual activity compared to control (DMSO), or using a serial (half-log) dilution of compounds starting at 10 μM and down to 0.3 nM (final concentrations in the assay) with data expressed as the pIC50.

EF2K = target: T2, EF2K (Homo sapiens, UniProt O00418); assay: Biochemical EF2K lysate-based kinase assay (AlphaLISA p-eEF2 Thr56); settings: LN-229 cell lysates, 10 mM ATP, pH 6.6; pIC50 = -log IC50 (M); read-out: eEF2K_C_alphalisa pIC50 (converted)
T2 construct: host or cells: LN-229 glioblastoma cell lysate
T2 sequence (O00418 1-725): T1 sequence (O00418 1-725)
Summary of the method: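 LN-229 glioblastoma lysate supplied both EF2K and eEF2 substrate; compound incubated with lysate 15 minutes at room temperature at pH 6.6 with 10 mM Mg2+ and 10 mM ATP, then stopped with excess EDTA. Thr56-phosphorylated eEF2 detected by sandwich AlphaLISA, final read after overnight standing.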

Structure (SMILES)	IC50 (eEF2K)	remaining activity at 1 µM (PIK3C3 lipid kinase)	IC50 (PIK3C3 lipid kinase)	IC50 (EF2K)	melting point	VPS34_1microM_%ofcntrl (PIK3C3 lipid kinase)	eEF2K_C_PThr56 pIC50 (eEF2K)
O=C1CN2CCN(Cc3cccc(c3)Nc3cc(ccn3)-c3cnc(nc3)NCCCN1)C(CO)C2 (single isomer, unassigned) [Compound 7]	1.62e-05 M	12.5%	1.07e-07 M	1.12e-07 M	267.8 to 267.9 °C		
COCCCN1CCCN(C)C(=O)CN2CCN(CC2)Cc2cccc(c2)Nc2cc(ccn2)-c2cnc1nc2 [Compound 14]	> 3.02e-05 M	50.4%		> 3.02e-05 M	240 °C		
CC1CN2CCN1Cc1cccc(c1)Nc1cc(ccn1)-c1cnc(nc1)N1CC(O)CC1CCNC(=O)C2 (stereo not shown) [Compound 61]	4.27e-07 M			1.26e-08 M		80.70%	
CC1CN2CCN1Cc1cccc(c1)Nc1cc(ccn1)-c1cnc(nc1)N1CC(O)CC1CCNC(=O)C2 (stereo not shown) [Compound 62]	8.51e-08 M		1.23e-06 M	5.5e-09 M			
O=C1CN2CCN(CC2)Cc2cccc(c2)Nc2cc(ccn2)-c2ccc(nc2)NCCCN1 [Compound 67]	3.98e-06 M	34%		~3.55e-07 M			
CN1CCCN(C)c2ccc(cn2)-c2ccnc(c2)Nc2cccc(c2)CN2CCN(CC2)CC1=O [Compound 68]	> 3.02e-05 M		4.68e-06 M	5.13e-07 M			
CN1CCCNC(=O)CN2CCN(CC2)Cc2cccc(c2)Nc2cc(ccn2)-c2ccc1nc2 [Compound 72]	5.89e-06 M	50.8%		2.88e-07 M			
O=C1CN2CCN(CC2)C2(CC2)c2cccc(c2)Nc2cc(ccn2)-c2cnc(nc2)NCCCN1 [Compound 73]	> 1e-05 M		> 1e-05 M	5.25e-06 M			
CC1(C)c2cccc(c2)Nc2cc(ccn2)-c2cnc(nc2)NCCCNC(=O)CN2CCN1CC2 [Compound 74]	1.51e-06 M	70.1%		1.2e-07 M			
N#CC1CC2CCNC(=O)CN3CCN(CC3)Cc3cccc(c3)Nc3cc(ccn3)-c3cnc(nc3)N2C1 (stereo not shown) [Compound 77]	3.8e-06 M			4.27e-08 M		86.17%	
N#CC1CC2CCNC(=O)CN3CCN(CC3)Cc3cccc(c3)Nc3cc(ccn3)-c3cnc(nc3)N2C1 (stereo not shown) [Compound 78]	2.24e-06 M			3.72e-08 M		43.17%	
[N-]=[N+]=N[C@H]1C[C@H]2CCNC(=O)C3(CC3)N3CCN(CC3)Cc3cccc(c3)Nc3cc(ccn3)-c3cnc(nc3)N2C1 [Compound 83]	6.61e-07 M	42.3%		8.71e-09 M			
NC1CC2CCNC(=O)CN3CCN(CC3)Cc3cccc(c3)Nc3cc(ccn3)-c3cnc(nc3)N2C1 (stereo not shown) [Compound 84]	1.02e-06 M	21.6%	3.24e-07 M	7.24e-08 M			
NS(=O)(=O)NC1CC2CCNC(=O)CN3CCN(CC3)Cc3cccc(c3)Nc3cc(ccn3)-c3cnc(nc3)N2C1 (stereo not shown) [Compound 86]	> 1e-05 M	68%		3.39e-07 M			
NS(=O)(=O)NC1CC2CCNC(=O)C3(CC3)N3CCN(CC3)Cc3cccc(c3)Nc3cc(ccn3)-c3cnc(nc3)N2C1 (stereo not shown) [Compound 87]	~2.29e-06 M	33.8%		1.95e-08 M			
O=C1CC2CCNC(=O)CN3CCN(CC3)Cc3cccc(c3)Nc3cc(ccn3)-c3cnc(nc3)N2C1 (stereo not shown) [Compound 88]	4.57e-07 M	66.5%		6.46e-08 M			
O=C1CN2CCC(CC2)Oc2cccc(c2)Nc2cc(ccn2)-c2cnc(nc2)NCCCN1 [Compound 90]	5.25e-07 M		6.17e-08 M	1.91e-08 M			
O=C1NCCCNc2ncc(cn2)-c2ccnc(c2)Nc2cccc(c2)NC2CCN(CC2)C12CC2 [Compound 100]	2.75e-06 M	14.9%	3.55e-07 M	6.17e-08 M			
CN1c2cccc(c2)Nc2cc(ccn2)-c2cnc(nc2)NCCCNC(=O)CN2CCC1CC2 [Compound 101]	3.98e-06 M	31.1%		2e-07 M			
O=C1NCCCNc2ncc(cn2)-c2ccnc(c2)Nc2cccc(c2)CN2CCN(CC2)C12CC2 [Compound 107]	3.55e-07 M		3.31e-07 M	6.76e-09 M			

Further lines, results first:

IC50 (eEF2K)	remaining activity at 1 µM (PIK3C3 lipid kinase)	IC50 (PIK3C3 lipid kinase)	IC50 (EF2K)	melting point	VPS34_1microM_%ofcntrl (PIK3C3 lipid kinase)	eEF2K_C_PThr56 pIC50 (eEF2K)	Structure (SMILES)
1.91e-05 M	33.5%		2.69e-06 M				COC(=O)C1CCNC(=O)CN2CCN(CC2)Cc2cccc(c2)Nc2cc(ccn2)-c2cnc(nc2)N1 (stereo not shown) [Compound 116]
		1.41e-07 M	4.57e-07 M		16.31%	<4.52	O=C1CN2CCN(CC2)Cc2cccc(c2)Nc2cc(ccn2)-c2cnc(nc2)NC(C(=O)O)CCN1 (stereo not shown) [Compound 117]
			2.75e-07 M		58.90%	<4.52	O=C1CN2CCN(CC2)Cc2cccc(c2)Nc2cc(ccn2)-c2cnc(nc2)NC(C(=O)O)CCN1 (stereo not shown) [Compound 119]
> 3.02e-05 M		2.95e-07 M	6.31e-07 M		23.74%		O=C1CN2CCN(CC2)Cc2cccc(c2)Nc2cc(ccn2)-c2cnc(nc2)NC(C(=O)O)CCN1 (stereo not shown) [Compound 120]
> 1e-05 M		2.63e-06 M	5.13e-06 M				NC(=O)C1CCNC(=O)CN2CCN(CC2)Cc2cccc(c2)Nc2cc(ccn2)-c2cnc(nc2)N1 (stereo not shown) [Compound 121]
1.41e-05 M	39.5%		1.91e-05 M				CNC(=O)C1CCNC(=O)CN2CCN(CC2)Cc2cccc(c2)Nc2cc(ccn2)-c2cnc(nc2)N1 (stereo not shown) [Compound 122]
5.37e-06 M	73.4%		4.47e-07 M				NC(=O)C1CCNC(=O)CN2CCN(CC2)Cc2cccc(c2)Nc2cc(ccn2)-c2cnc(nc2)N1 (stereo not shown) [Compound 123]
> 3.02e-05 M	52.7%		2.82e-07 M				O=C1CN2CCN(CC2)Cc2cccc(c2)Nc2cc(ccn2)-c2cnc(nc2)NCCS(=O)(=O)N1 [Compound 126]
4.17e-07 M	74.5%		2.88e-07 M				O=C1CN2CCN(CC2)Cc2cccc(c2)Nc2cc(ccn2)-c2cnc(nc2)CN(CC2CC2)CCN1 [Compound 128]
1.58e-06 M	57%		1e-06 M				C=CCN1CCNC(=O)CN2CCN(CC2)Cc2cccc(c2)Nc2cc(ccn2)-c2cnc(nc2)C1 [Compound 130]
2.51e-06 M	56.2%		6.17e-08 M				O=C1CN2CCN(CC2)Cc2cccc(c2)Nc2cc(ccn2)-c2cnc(nc2)CN(C(=O)C2CC2)CCN1 [Compound 131]
8.51e-06 M	46.4%		3.8e-06 M				O=C1CN2CCC(CC2)Cc2cccc(c2)Nc2cc(ccn2)-c2ccc(nc2)NCCCN1 [Compound 140]
6.61e-07 M	54.6%		3.89e-08 M				O=C1CN2CCN(CC2)Cc2cccc(c2)Nc2cc(ccn2)-c2ccc(nc2)CN(CC2CC2)CCN1 [Compound 146]
